Laboratory results as given in US7102056B1, “Compositions and methods for plant transformation and regeneration” (The Regents of the University of California, priority 1997, dated 2006).

What was measured:
calli of Golden Promise = test: Regenerability of calli from twelve callus-induction media (auxin types, copper); assay type: cell-based, barley
Description: (§1) To examine the effects of different types of auxins and concentrations of copper on callus quality and regenerability in barley, twelve different media were tested, using methods essentially as described in Example 2 above.

[1] = test system: green tissue of Golden Promise, Galena and Harrington; test: Selection and regeneration of bombarded green tissues with selective agents; assay type: cell-based; conditions: bombarded barley green tissues under selection
Description: The green regenerative tissues generated and maintained on one or two of these media, DBC2 (comprising 2.5 mg/L 2,4-D, 0.1 mg/L BAP and 5.0 μM CuSO4, Cho et al., 1998) or DBC3 (comprising 1.0 mg/L 2,4-D, 0.5 mg/L BAP and 5.0 μM CuSO4, Cho et al., 1998), were used directly as transformation targets. For bombardment, 3 to 4 mm pieces of green tissue of Golden Promise, Galena and Harrington, removed 3 to 4 months after initiation of the original culture, were osmotically treated on DBC2 or DBC3 medium and bombarded the same day with three different selection constructs, ubi-bar/ubi-uidA, ubi-nptII/ubi-uidA and act-hpt/ubi-uidA. […] Sixteen to 18 hr post-bombardment, green tissues were transferred without osmoticum or selective agent to dim light on DBC2 or DBC3 medium for Golden Promise and Harrington or DBC3 for Galena. Selection with all agents started […] post-bombardment to allow for proliferation of transformed cells in the absence of the cell death resulting from wounding or selection. At that time, tissue was broken into pieces (3-5 mm) and transferred to either DBC2 or DBC3 medium (depending on morphology) with 3 mg/L bialaphos (bar), 20-25 mg/L hygromycin B (hpt) or 30 mg/L G418 (nptII), depending on the construct used. Starting with the third round of selection, levels of selective agent were increased to 45 mg/L bialaphos, 25 mg/L hygromycin B or 40 mg/L G418. […]

Galena immature embryos = test: Callus-induction frequency on callus-induction media (CIM); assay type: cell-based, barley (Hordeum vulgare L.); conditions: Galena half embryos on CIM; 2 to 3 weeks after initial culturing; means ± SD of three replicates
Description: (§2) Immature embryos (about 1.5-2.5 mm in size) were taken from spikes approximately three months in age that were surface-sterilized in 20% (v/v) bleach (5.25% sodium hypochlorite) for 7 min. washed 5 min with sterile water three times, bisected longitudinally, and placed on CIM. Ten half-embryos were tested on CIM supplemented with each of the fourteen phytohormone combinations; each treatment had three replicates. (Whole embryos can also be used.) Callus-induction frequency was measured by counting numbers of half embryos undergoing callus induction under a light microscope 2 to 3 weeks after initial culturing.
(§3) Immature zygotic embryos about 1.5 to 2.5 mm in size were dissected and isolated intact under a stereo dissecting microscope from seeds that were surface-sterilized for 10 min in 20% (v/v) bleach (5.25% sodium hypochlorite) followed by three washes in sterile water. The embryos were placed scutellum-side down on CIM.
(§4) Six different CIMs were used to test callus-induction frequencies and callus quality. The CIMs had, respectively, different concentrations of: 2,4-D (1.0 and 2.5 mg/L), BAP (0.01, 0.1 and 0.5 mg/L), and cupric sulfate (CuSO4; 0.1 and 5.0 μM) as shown in Table 7.
(§5) The initial callus-induction frequency was determined using CIM of different compositions. Ten immature embryos from the barley genotypes Golden Promise and Galena were transferred to each CIM. Each CIM contained the following levels of hormones and copper: D, 2.5 mg/L 2,4-D and 0.1 μM CuSO4; DC, 2.5 mg/L 2,4-D and 5.0 μM CuSO4; DB, 2.5 mg/L 2,4-D, 0.1 mg/L BAP, 0.1 μM CuSO4; DBC1, 2.5 mg/L 2,4-D, 0.01 mg/L BAP and 5.0 μM CuSO4; DBC2, 2.5 mg/L 2,4-D, 0.1 mg/L BAP and 5.0 μM CuSO4; DBC3, 1.0 mg/L 2,4-D, 0.5 mg/L BAP and 5.0 μM CuSO4. Callus quality was assessed microscopically and scored on a scale with ++++ designating highest quality and +designating lowest quality. Values were measured three weeks after initial callus induction and represent means of three replicates for each treatment. […] Tissue quality was poor on CIM containing BAP three weeks after induction but improved after two to three transfers on this medium. Only a fraction of scutellar tissues on Galena immature embryos formed callus, while most of the scutellar surface on Golden Promise immature embryos formed high-quality callus.

[2] = test system: Golden Promise immature embryos; test: as above; assay type: cell-based, barley (Hordeum vulgare L.); conditions: Golden Promise half embryos on CIM; 2 to 3 weeks after initial culturing; means ± SD of three replicates
Description: as §2, §3, §4, §5

[3] = test system: nontransgenic callus tissues of Golden Promise; test: Regeneration via an intermediate-incubation step, nontransgenic callus; assay type: cell-based, barley; conditions: two-month-old callus of Golden Promise maintained on CIM containing the auxin alone
Description: Callus induction was performed as described above using CIM with 2.5 mg/L of 2,4-D or dicamba (no cytokinin). After incubation for three weeks at 24±1° C. in the dark, callus was cut into small pieces (about 3 to 4 mm), then maintained on the same medium with subculturing at three-week intervals.
Ten pieces of two-month-old nontransgenic calli grown on CIM supplemented with either 2,4-D or dicamba in the dark were transferred to RM either directly or following incubation on an IIM.
Two different IIM were used, DBC2 and DBC3. DBC2 medium is CIM containing 2.5 mg/L 2,4-D, 0.1 mg/L BAP, and 5.0 μM copper (cupric sulfate). DBC3 medium is CIM containing 1.0 mg/L 2,4-D, 0.5 mg/L BAP, and 5.0 μM copper. After growing calli on these media for 3-4 weeks under dim light conditions (20 to 30 μE; 16 h light/8 h dark), the numbers of calli producing green sectors or green regenerative structures were counted. Green sectors and small green regenerative structures were then transferred to fresh RM and grown under higher light intensity (45-55 μE). After 3-4 weeks, the numbers of green shoots per callus piece were counted. […]

[4] = test system: Golden Promise immature embryos; test: Callus quality on twelve callus-induction media (auxin types, copper); assay type: cell-based, barley
Description: as §1

| Compound | induction of calli which regenerated green plants (calli of Golden Promise) | albino plants during regeneration of selected tissues [1] | Callus Induction Frequency (%) GAL (Galena immature embryos) | Callus Induction Frequency (%) GP [2] | green shoots per callus piece [3] | other results |
| --- | --- | --- | --- | --- | --- | --- |
| O=C(O)Cc1cccc2ccccc12 [NAA] | Neither IAA nor NAA was optimal |  |  |  |  |  |
| C[C@H](NC(=O)[C@H](C)NC(=O)[C@@H](N)CCP(C)(=O)O)C(=O)O [bialaphos] |  | no albino plants were observed |  |  |  |  |
| COc1c(Cl)ccc(Cl)c1C(=O)O [dicamba] |  |  | ~100% | ~100% | 1.15 |  |
| O=C(O)Cc1c[nH]c2ccccc12 [IAA] | Neither IAA nor NAA was optimal |  |  |  |  | callus quality [4]: poorer callus quality than the other auxins |
| CN[C@H]1C[C@@H](N)[C@H](O)[C@@H](O[C@@H]2O[C@H](CO)[C@H](O)[C@@H]3OC4(O[C@H]23)O[C@H]([C@@H](N)CO)[C@H](O)[C@H](O)[C@H]4O)[C@@H]1O (some centres unmarked) [hygromycin B] |  | frequently albino plants were observed |  |  |  |  |
| O=C(O)COc1ccc(Cl)cc1Cl [2,4-D, 2,4-dichlorophenoxyacetic acid] |  |  | ~100% | ~100% | 0.35 |  |
